{"source": "paper PMC4066437", "about": "“Oxidation of cellular amino acid pools leads to cytotoxic mistranslation of the genetic code” (eLife, 2014)", "target": "T1, E. coli TyrRS (Escherichia coli, UniProt P0AGJ9)", "T1 construct": "gene tyrS; homodimer", "T1 sequence (P0AGJ9 2-424)": "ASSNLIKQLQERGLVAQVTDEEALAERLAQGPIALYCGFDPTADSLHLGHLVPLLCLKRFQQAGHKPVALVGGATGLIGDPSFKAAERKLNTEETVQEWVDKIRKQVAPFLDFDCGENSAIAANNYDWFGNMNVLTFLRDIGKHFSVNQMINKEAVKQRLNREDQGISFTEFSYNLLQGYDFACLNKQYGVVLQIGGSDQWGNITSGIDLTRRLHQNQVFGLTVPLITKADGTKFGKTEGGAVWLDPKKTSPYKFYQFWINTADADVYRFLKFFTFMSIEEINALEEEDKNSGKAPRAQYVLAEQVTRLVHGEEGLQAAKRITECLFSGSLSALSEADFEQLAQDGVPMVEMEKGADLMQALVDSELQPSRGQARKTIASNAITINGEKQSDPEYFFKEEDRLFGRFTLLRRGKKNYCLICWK", "test": "aminoacylation of […]-tRNA transcript", "type": "biochemical", "details": "1 mM m-Tyr, 50 nM TyrRS, 25 °C; tRNA named tRNA(Tyr) in text, tRNA(Phe) in legend", "data": [{"smiles": "NC(Cc1cccc(O)c1)C(=O)O", "note": "(racemic) [m-Tyr, D,L-m-Tyr]", "values": [{"measurement": "aminoacylation of 32P-tRNA transcript", "result": "Aminoacylation of tRNA^Tyr with m-Tyr by E. coli TyrRS was detected in vitro"}]}]}
